“Also recorded” adds a separate entry of the source.
Assays:
[1] = test system: cytotoxic T lymphocytes, P815 target cells; assay: Cytotoxic T lymphocytes (CTL) assay; assay type: cell-based, C57B1/6 mice and DBA/2 mice; details: Mus musculus, P815, 120 h; at 10^-9 M; read-out: CTL activity, % increase compared to IL2 (100%)
Procedure: Mixed lymphocyte reaction is an in vitro counterpart of the allograft rejection. Briefly, T cell response was obtained when cells taken from two inbred strains from two outbred individuals of any species were mixed in vitro in culture.
After 4 days incubation, ^3 H thymidine uptake and cytotoxicity assay (CTL) were performed.
3 C57B1/6 mice and 3 DBA/2 mice wre killed and lymphocytes prepared using lympholyte M. The cell concentration was adjusted to 10×10^6 cell/ml for each lysis. DBA/2 cells were irradiated with 3000 Rads. 1 ml of the C57 cells+1 ml of the DBA/2 cells+1 ml of the drug at 3 different concentrations were incubated together for 5 days. Positive control was IL-2 at 15 ng/ml final. After 5 days, the CTL and MLR tests were carried out.
P815 target cells were labelled with Cr^51. After labelling, the cells were resuspended to 5×10^4 cells/ml.
100 μl of target cells+100 μl Of T cells were incubated for 4 hrs and then 100 μl of supernatant was counted using a gamma counter.

[2] = test system: T cell activity (ConA), spleen mononuclear leukocytes; assay: Mitogenic proliferation on spleen cell suspension, T (ConA); assay type: cell-based, C57BL-6 mice; details: at 10^-8 - 10^-5 (M); 4320 min
From the text: (§1) Mitogenic lectin (mitogen) is a protein which binds and cross-links specific cells surface carbohydrate determinants, and will polyclonally stimulate lymphoid cells. Lymphocyte activation by either antigens or mitogens results in intracellular changes and the subsequent development into a lymphoblast. Mitogenic stimulation of lymphocytes in vitro is believed to mimic the series of events which occur in vivo following their stimulation by specific antigens. PHA, ConA, and PWM, LPS mitogens can be used as a measurement of T cell and B cell activity, respectively.
(§2) Briefly, spleen mononuclear leukocytes from C57BL-6 mice were incubated in the presence or absence of mitogens with or without tested drugs. After 72 hours or 5 days, ^3 H thymidine incorporation was recorded as an indication of cell transformation and proliferation.
(§3) 100 μl of a suspension of 2×10^6 cells/ml (2×10^5 cells/well) were incubated in presence of PHA or ConA or PWM or LPS at the following concentrations:
(§4) PHA=0.01% final concentration-0.001%
(§5) Cells were incubated in presence or absence of drugs for 72 hours. 0.5 or 1 μCi of tritiated thymidine (^3 H) was added per well the last 18 or 6 hours of incubation respectively. Cells were harvested and counted on a Beta counter.

[3] = Body weight, compound #1 with Cytoxan 20 mg/kg (Example 93); assay type: in vivo; details: compound #1 + CTX 20 mg/kg
Procedure: Combination of compound #1 (25 and 50 mg/kg i.p. daily) plus CTX (20 mg/kg i.v. single bolus) was evaluated against day 4 established DA-3 tumors.

[4] = Body weight, compound #1 with Cytoxan 28 mg/kg (Example 94); assay type: in vivo, Balb/c mice; set-up: body weight: unit not given here
Procedure: In another experiment, the CTX treatment was prolonged. Balb/c mice were injected s.c. with 5×10^5 DA-3 tumor cells at day 0. At day 4 when established tumors appeared, tumor-bearing animals were randomized (n=11/gr.) and injected with CTX (at 28 mg/kg) i.v. bolus injections at days 4, 11, and 18. […]

[5] = test system: B cell activity (LPS), spleen mononuclear leukocytes; assay: Mitogenic proliferation on spleen cell suspension, B (LPS); assay type: cell-based, C57BL-6 mice; details: Mus musculus, Leukocyte, 72 h; at 10^-6 (M)
From the text: as §1, §2, §3, §4, §5

spleen cells = assay: Immunophenotyping on spleen cells of compound #1 treated mice; assay type: in vivo, C57/BLJ6 mice; details: N = 10
Procedure: After in vivo drugs analysis, the drugs were evaluated on whole blood for drug stability and toxicity. Furthermore, in vivo/ex vivo analysis was performed on normal and cyclophosphamide immunosuppressed animals plus 5Fu-treated animals. Cell immunophenotyping was performed on mouse-treatedblood and spleen. The following cell surface antigens were analyzed:
CD3 (all T cells), CD4 (T helper/inducer, binds class II-restricted T cells), CD8a (cytotoxic T cells, CTL adhesion), CD11a (T, B, NK, some stem cells, CTL adhesion anti LFA-1α), MAC-1 (monocyte/macrophage), NK (natural killer cells), Ly5 (B cells), CD45 (all leukocytes, protein tyrosine phosphates), and TCR (T cell receptor).
C57/BLJ6 mice (6-8 weeks old) were injected daily for 4 consecutive days, sacrificed at day 5 and immunophenotyping was performed on blood and spleen cells.
The cells were washed twice in PBS, resuspended in 1 ml of RPMI 2% FBS, and incubated for 45 min. on ice with monoclonal antibody. The cells were washed once, fixed with 1% paraformaldehyde, then analyzed using XL Coulter® counter.

[6] = test system: Fisher male and female rats; assay: In vivo toxicity, repeated intravenous injections (Example 96)
Procedure: The objective of this study was to find the toxic dose of compound #1 after repeated intravenous injections in Fisher male and female rats.
Groups of 3 male rats, and 3 female rats were injected daily i.v. for 5 consecutive days. A first group received 500 mg/kg, a second group 250 mg/kg, and a third group 125 mg/kg. In addition, one male and one female were injected with 1000 mg/kg. An untreated group (male and female) was included in the experiment. For all doses a constant volume of […] was used. Injections were started on day 0 and continued until day 4 (5 days). […] On day 8, the rats were euthanatized and a macroscopic examination of the internal organs was performed.

[7] = 250 mg/kg and 125 mg/kg i.v., 5 days

**Q.** What does the source list for `CN(C)c1ncnc2c1ncn2CCCCCOC(=O)N[C@H](CCCNC(=N)N)C(=O)O` [Compound #1, N,N-Dimethylaminopurinyl Pentoxycarbonyl D-Arginine]?
**A.** activation at 0.001 µM [1]: > 80%; T (ConA) mitogenic proliferation [2]: 2 - 4 ×; body weight loss [3]: No significant body weight loss; body weight ([4]; BCH-1393 50 mg/kg + CTX 28 mg/kg, day 7): 18.2; body weight ([4]; BCH-1393 50 mg/kg + CTX 28 mg/kg, day 9): 19.1; body weight ([4]; BCH-1393 50 mg/kg + CTX 28 mg/kg, day 11): 19.0; body weight ([4]; BCH-1393 50 mg/kg + CTX 28 mg/kg, day 14): 18.6; body weight ([4]; BCH-1393 50 mg/kg + CTX 28 mg/kg, day 16): 19.5; body weight ([4]; BCH-1393 50 mg/kg + CTX 28 mg/kg, day 18): 19.3; body weight ([4]; BCH-1393 50 mg/kg + CTX 28 mg/kg, day 21): 18.9; body weight ([4]; BCH-1393 50 mg/kg + CTX 28 mg/kg, day 23): 18.8; body weight ([4]; BCH-1393 50 mg/kg + CTX 28 mg/kg, day 25): 19.5; body weight ([4]; BCH-1393 50 mg/kg + CTX 28 mg/kg, day 28): 19.4; body weight ([4]; BCH-1393 50 mg/kg + CTX 28 mg/kg, day 30): 19.3; body weight ([4]; BCH-1393 50 mg/kg Ip (Days 3-28) + CTX 28 mg/kg Iv (days 4, 11, 18), day 4): 18.7; body weight loss ([4]; compound #1 50 mg/kg + CTX 28 mg/kg): No significant body weight loss; body weight ([4]; single agent (CTX 28 mg/kg days 4, 11, 18, or BCH-1393 50 mg/kg days 3-28), day 4): 18.6; body weight ([4]; single agent (CTX 28 mg/kg or BCH-1393 50 mg/kg), day 7): 19.1; body weight ([4]; single agent (CTX 28 mg/kg or BCH-1393 50 mg/kg), day 9): 19.3; body weight ([4]; single agent (CTX 28 mg/kg or BCH-1393 50 mg/kg), day 11): 18.9; body weight ([4]; single agent (CTX 28 mg/kg or BCH-1393 50 mg/kg), day 14): 18.9; body weight ([4]; single agent (CTX 28 mg/kg or BCH-1393 50 mg/kg), day 16): 19.5; body weight ([4]; single agent (CTX 28 mg/kg or BCH-1393 50 mg/kg), day 18): 18.9; body weight ([4]; single agent (CTX 28 mg/kg or BCH-1393 50 mg/kg), day 21): 19.3; body weight ([4]; single agent (CTX 28 mg/kg or BCH-1393 50 mg/kg), day 23): 19.3; body weight ([4]; single agent (CTX 28 mg/kg or BCH-1393 50 mg/kg), day 25): 19.5; body weight ([4]; single agent (CTX 28 mg/kg or BCH-1393 50 mg/kg), day 28): 19.7; body weight ([4]; single agent (CTX 28 mg/kg or BCH-1393 50 mg/kg), day 30): 20.0; fold induction at 1 µM [5]: 2; Ly5 (mean) (spleen cells; 25 mg/kg): 54.08; TCR+ (mean) (spleen cells; 25 mg/kg): 39.78; Ly5 (mean) (spleen cells; 50 mg/kg): 50.35; TCR+ (mean) (spleen cells; 50 mg/kg): 45.09; abnormal signs [6, 7]: no abnormal signs; growth curves [6, 7]: normal; changes on necropsy ([6]; 250 mg/kg and 125 mg/kg i.v., day 8): No drug induced changes; signs of toxicity ([6]; 250 mg/kg i.v., 5 consecutive days): no signs of toxicity; growth curves ([6]; 500 mg/kg i.v., 5 days): not affected when compared to controls; lethality or effects on growth ([6]; 500 mg/kg i.v., 5 days): no lethality of effects on the growth of the animals; signs of drug effect ([6]; 500 mg/kg i.v., 5 days): twitches of the torso area, tremors of the forepaws and jumping episods; also recorded: some short lasting abnormal signs; duration of signs ([6]; 500 mg/kg i.v., after each of five injections): less than 1 hour; lethality ([6]; 1000 mg/kg i.v.): lethal; signs of drug effect ([6]; 1000 mg/kg i.v.): severe colonic convulsions; time to death ([6]; 1000 mg/kg i.v., 1 male and 1 female, both died): ≤ 10 min; tolerability ([6]; i.v. in Fisher rats): well tolerated; tolerability (conclusion) ([6]; rat, in vivo): appear to be well tolerated
